Source: patent US5606037A, “Processes antineoplastic heteronaphthoquinones” (BioChem Pharma Inc., priority 1995, dated 1997)

Columns and labels:
Type in all cases: cell-based, Human
[1] = test system: SKVLB (Ovarian; multidrug resistant); experiment: In vitro cytotoxicity, microculture tetrazolium (MTT) assay, SKVLB; settings: SKVLB multidrug resistant ovarian, 48 h with compound, further 48 h, MTT, Table 1
Description: (§1) The microculture tetrazolium assay was used to test in vitro cytotoxicity. This assay is described in Plumb, J. A. et al., 1989 Cancer Research 49, 4435-4440, which is herein incorporated by reference. The cytotoxicity of compounds towards tumor cells is measured in vitro using the assay. This assay method is based upon the ability of live, but not dead cells to reduce the yellow water soluble dye 3-(4,5-dimethylthiazol-2-yl)-2,5-diphenyltetrazolium bromide (MTT) to its water insoluble purple formazan product.
(§2) Human Tumor Cell lines, used were:
SKVLB (Ovarian; multidrug resistant)--Dr. V. Ling, Ontario Cancer Institute.
(§3) The cells were maintained in exponential growth in culture in minimal essential media (MEM) supplemented with non-essential amino acids, and containing 15% (v/v) fetal. bovine serum, 5 mM L-glutamine, 1 mM sodium pyruvate, and 0.1 U/ml insulin. All cell lines were grown at 37° C. in an atmosphere of 5% CO2 in air.
(§4) MTT: 2 mg/ml in phosphate buffered saline (stable at 4° C. in dark for 1 week).
(§5) Sorensen's buffer: 0.1M glycine/NaOH, pH 10.5, containing 0.1M NaCl.
(§6) Test compounds: 20 mM in DMSO and diluted to a final concentration of 200 μM in culture medium before use.
(§7) For each assay, doxorubicin is included as an inter-assay standard. This allows us to monitor the behaviour of the assay in general, and in particular, to check that the SKVLB line has maintained its resistant phenotype.
(§8) The assays are carried out in 96-well (8 well×12 well) microtiter plates. Serial dilutions of the compound are tested along the length of the plate. A 1:3 serial dilution of compound in culture medium covers a concentration range from 100 μM to 1.7 nM. Each concentration of compound is tested in quadruplet, allowing two compounds to be tested per plate. Wells containing no cells (blank) and cells with no test compound (control) are included on each plate.
(§9) Cells are plated out in 100 μl of culture medium in the microtiter plates at a density of around 1,500-4,000 cells per well. The plates are incubated overnight to allow the cells to become adherent after which the test compound is added (100 μl of appropriate dilution per well). The cells are incubated with test compound at 37° C. for 48 h after which the compound is replaced with fresh medium. After a further 48 h incubation at 37° C., 50 μl of MTT solution (2 mg/ml) is added to each well. The plates are incubated in the dark for 4 h at 37° C. after which the medium is removed. The MTT formazan product is extracted from the cells by the addition of 200 μl DMSO followed by 50 μl of Sorensen's buffer. The plates are shaken briefly and the absorbance at 570 nm is read using a Molecular Devices UV max plate reader. Curves are fit to the MTT assay data using a four parameter logistic equation, and the data are normalized to fit a 0% to 100% survival scale.

[2] = test system: T47D (Ductal carcinoma of breast); experiment: In vitro cytotoxicity, microculture tetrazolium (MTT) assay, T47D; settings: 48 h with compound, further 48 h, Table 1
Description: as §1, §2
T47D (Ductal carcinoma of breast)--ATCC catalog #HTB-133.
as §3, §4, §5, §6, §7, §8, §9

[3] = test system: SKOV3 (Ovarian adenocarcinoma); experiment: In vitro cytotoxicity, microculture tetrazolium (MTT) assay, SKOV3; settings: SKOV3 ovarian adenocarcinoma, 48 h with compound, further 48 h, MTT, Table 1
Description: as §1, §2
SKOV3 (Ovarian adenocarcinoma)--provided by Dr. V. Ling, Ontario Cancer Institute.
as §3, §4, §5, §6, §7, §8, §9

[4] = test system: HT 29 (Colon adenocarcinoma); experiment: In vitro cytotoxicity, microculture tetrazolium (MTT) assay, HT29; settings: further 48 h, Table 1
Description: as §1, §2
HT 29 (Colon adenocarcinoma) ATCC catalog #HTB-38.
as §3, §4, §5, §6, §7, §8, §9

[5] = test system: Lox (Melanoma); experiment: In vitro cytotoxicity, microculture tetrazolium (MTT) assay, LOX; settings: Homo sapiens, 48 h with compound, further 48 h, Table 1
Description: as §1, §2
Lox (Melanoma)--Southern Research Institute.
as §3, §4, §5, §6, §7, §8, §9

[6] = Homo sapiens, HT-29, 48 h with compound

SMILES	IC50 [1]	IC50 [2]	IC50 ([1]; Homo sapiens)	IC50 ([3]; Homo sapiens, SK-OV-3)	IC50 [4, 6]	IC50 [5]	IC50 ([2]; Homo sapiens)	IC50 [3]	IC50 ([4]; 48 h with compound)
COC1OC(C(=O)NCCN2CCOCC2)=CC2=C1C(=O)c1ccccc1C2=O (stereo not shown) [BCH2171, 1-methoxy-3-[2-(N-morpholine)ethylaminocarbonyl]-5,10-dioxo-5,10-dihydro-1H-naphtho-[2,3-c]-pyran]	422 to 440 nM	398 nM							
COC[C@@H]1CC2=C(C(=O)c3ccccc3C2=O)[C@@H](O[C@H]2C[C@H](NC(=O)C(F)(F)F)[C@H](O)[C@H](C)O2)O1 [BCH1691, (1'S, 1R, 3S)-5,10-dioxo-3-methoxymethyl-1-(2',3',6'-trideoxy-3'-trifluoroacetamido-L-lyxohexopyranose)-3,4,5,10-tetrahydro-1H-naphtho-[2,3-c]-pyran]			18500 nM	8830 nM	7160 nM	4490 nM			
CC(C)OC(=O)[C@@H]1CC2=C(C(=O)c3ccccc3C2=O)[C@@H](O[C@H]2C[C@H](NC(=O)C(F)(F)F)[C@H](O)[C@H](C)O2)O1 [BCH2122, (1'S, 1R, 3S)-5,10-dioxo-3-isopropoxycarbonyl-1-(2',3',6'-trideoxy-3'-trifluoroacetamido-L-lyxohexopyranose)-3,4,5,10-tetrahydro-1H-naphtho-[2,3-c]-pyran]			2000 nM	370 nM	640 nM	730 nM			
CO[C@@H]1O[C@H](C(=O)O)CC2=C1C(=O)c1ccccc1C2=O (relative stereo) [BCH2119, (1,3-cis)-1-methoxy-3-carboxyl-5,10-dioxo-3,4,5,10-tetrahydro-1H-naphtho-[2,3-c]-pyran]			> 100000 nM	> 100000 nM	> 100000 nM		> 100000 nM		
CC[C@H]1CC2=C(C(=O)c3ccccc3C2=O)[C@H](NC(C)=O)O1 (relative stereo) [BCH2027, Trans-5,10-dioxo-1-acetamido-3-ethyl-3,4,5,10-tetrahydro-1H-naphtho-[2,3-c]-pyran]			29000 nM	7010 nM	15400 nM				
CC(=O)O[C@H]1[C@@H](I)[C@H](O[C@@H]2O[C@@H](C(C)=O)CC3=C2C(=O)c2ccccc2C3=O)O[C@@H](C)[C@H]1OC(C)=O [BCH1667, (1'S,1S,3R)-methyl-(1-[2',6'-dideoxy-3',4'-diacetoxy-2'-iodo-L-lyxohexopyranose]-5,10-dioxo-3,4,5,10-tetrahydronaphtho[2,3-c]-pyran-3-yl) ketone]			89.3 nM	12.2 nM	1.6 nM	13.3 nM			
CC(=O)[C@H]1CC2=C(C(=O)c3ccccc3C2=O)[C@H](O[C@H]2C[C@H](NC(=O)C(F)(F)F)[C@H](O)[C@H](C)O2)S1 [BCH2127, (1'S, 1R, 3R)-1-(3'-trifluoroacetamido-2',3',6'-trideoxy-L-lyxohexopyranose)-3-acetyl-5,10-dioxo-3,4,5,10-tetrahydro-1H-naphtho-[2,3-c]-thiopyran]			4100 nM	350 nM	2700 nM	2000 nM			
CC(C)OC(=O)[C@H]1CC2=C(C(=O)c3ccccc3C2=O)[C@H](O[C@H]2C[C@H](NC(=O)C(F)(F)F)[C@H](O)[C@H](C)O2)O1 [BCH2121]			1300 nM	210 nM	340 nM	340 nM			
COC(=O)[C@@H]1CC2=C(C(=O)c3ccccc3C2=O)[C@@H](O[C@H]2C[C@H](NC(=O)C(F)(F)F)[C@H](O)[C@H](C)O2)O1 [BCH2128, (1'S, 1R, 3S)-5,10-dioxo-3-methoxycarbonyl-1-(2',3',6'-trideoxy-3'-trifluoroacetamido-L-lyxohexopyranose)-3,4,5,10-tetrahydro-1H-naphtho-[2,3-c]-pyrano]			5800 nM	1700 nM	1600 nM	1400 nM			
CC(=O)O[C@H]1[C@@H](I)[C@H](O[C@H]2O[C@H](C(C)=O)CC3=C2C(=O)c2ccccc2C3=O)O[C@@H](C)[C@H]1OC(C)=O [BCH1666, (1'S,1R,3S)-methyl-(1-[2',6'-dideoxy-3'-4'-diacetoxy-2'-iodo-L-lyxohexopyranose]-5,10-dioxo-3,4,5,10-tetrahydronaphtho[2,3-c]-pyran-3-yl) ketone]			205 nM	272 nM	78.3 nM	125 nM			
COC(=O)C1(C(=O)OC)CC2=C(CO1)C(=O)c1ccccc1C2=O [BCH1665, 3,3-bis-(methoxycarbonyl)-5,10-dioxo-3,4,5,10-tetrahydro-1H-naphtho-[2,3-c]-pyran]			28900 nM	25400 nM	60400 nM	11500 nM			
CC(=O)O[C@@H]1[C@H](C)O[C@@H](OC2OC(C(C)=O)CC3=C2C(=O)c2ccccc2C3=O)C[C@@H]1OC(C)=O (mixture of isomers) [BCH2118, (1'S,1S,3R) and (1'S,1R,3S)-methyl-(1-[dideoxy-2',6'-diacetoxy-3',4'-L-lyxohexopyranose]-5,10-dioxo-3,4,5,10-tetrahydronaphtho-[2,3-c]-pyran-3-yl) ketone]				120 nM	203 nM		244 nM		
COC1OC(C(=O)NCCCN2CCCC2=O)=CC2=C1C(=O)c1ccccc1C2=O (stereo not shown) [BCH2166, 1-methoxy-3-(3-N-pyrrolidinomylpropylaminocarbonyl)-5,10-dioxo-5,10-dihydro-1H-naphtho-[2,3-c]-pyran]		237 nM						140 to 181 nM	443 to 1200 nM
C=C(C)[C@H]1CC2=C(C(=O)c3ccccc3C2=O)[C@H](OC)O1 (relative stereo) [BCH2148, (trans)-5,10-dioxo-3-isopropenyl-1-methoxy-3,4,5,10-tetrahydro-1H-naphtho-[2,3-c]-pyran]			9930 nM	12600 nM	7500 nM		2360 nM		
CC(=O)C1CC2=C(C(=O)c3ccccc3C2=O)C(OC2CC(NC(=O)C(F)(F)F)C(O)C(C)O2)O1 [BCH2145, (1S, 3R)-1-(2',3',6'-trideoxy-3'-trifluoroacetamido-4'-hydroxy-1,5-dihydro-L-lyxohexopyranose-2-yl)-5,10-dioxo-3,4,5,10-tetrahydro-1H-naphtho-[2,3-c] pyran]		1780 nM							
CC(=O)[C@]1(C)CC2=C(C(=O)c3ccccc3C2=O)[C@H](O[C@H]2C[C@H](NC(=O)C(F)(F)F)[C@H](O)[C@H](C)O2)O1 [BCH2090, (1'S,1S,3S)-1-(3'-trifluoroacetamido-2',3',6'-trideoxy-lyxo-L-hexopyranose)-3-acetyl-3-methyl-3,4,5,10-tetrahydro-5,10-dioxo-1H-naphtho-[2,3-c]pyran]			36000 nM	11000 nM	10400 nM				
C[C@@H]1O[C@@H](OC2OC(C#N)CC3=C2C(=O)c2ccccc2C3=O)C[C@H](NC(=O)C(F)(F)F)[C@@H]1O (mixture of isomers) [BCH1688, (1'-S, 1-R, 3-S) and (1'-S, 1-S, 3-R)-3-cyano-1-[2',3',6'-trideoxy-3'-trifluoroacetamido-4'-hydroxy-L-lyxohexopyranose)-5,10-dioxo-3,4,5,10-tetrahydronaphtho-[2,3C]pyran-3-yl]			2770 nM	634 nM	1350 nM	402 nM			
COC(=O)C1=CC2=C(CO1)C(=O)c1ccccc1C2=O [BCH2830, 3-methoxy carbonyl-5,10-dioxo-5,10-dihydro-1H-naphtho-[2,3-c]-pyran]				7120 nM	12500 nM				
COC1OC(C(=O)NCCN2CCOCC2)=CC2=C1C(=O)c1ccccc1C2=O (stereo not shown) [BCH2170, 1-methoxy-3-[2-(N-morpholino)ethylaminocarbonyl]-5,10-dioxo-5,10-dihydro-1H-naphtho-[2,3-c]-pyran]			394 nM	259 nM	244 nM				
